Tests used:
Experiment in all cases: Gene expression in human chondrocyte cells (SW1353), quantitative real-time PCR
Assay type in all cases: cell-based
Details in all cases: 12.5 μM compound, SW1353 chondrocytes, IL-1β treated
Aggrecan = test system: Aggrecan
Procedure: (§1) The cells were treated with IL-1β, which is one of the natural mediators that induce cartilage breakdown and is detected in substantial amounts in osteoarthritic cartilage tissues and cells derived thereof. Treatment of cells with IL-1β triggers the expression of genes that are involved in catabolic events, such as MMPs.
(§2) Chondrocytes (SW1353; purchased from the […] [ATCC]) were grown in cell culture medium according to the instructions from ATCC. For experimental treatments, cells were seeded into 6-well plates and cultured for two days until they reached confluence. Total cellular RNA was extracted from cultured cells and reverse-transcribed as described by Richard et al. Mol. Nutr. […] Expression levels of distinct genes were determined by quantitative real-time PCR as described in Richard et al. Mol. Nutr.

Human MMP-13 = test system: Human MMP-13
Procedure: as §1, §2

Human MMP-1 = test system: Human MMP-1
Procedure: as §1, §2

Human collagen II = test system: Human collagen II
Procedure: as §1, §2

Human MMP-3 = test system: Human MMP-3
Procedure: as §1, with “MMPs. Also, treatment of the cells with IL-1β reduces the collagen expression levels (compared to untreated cells)” for “MMPs.”
Chondrocytes (SW1353; purchased from the […] [ATCC]) were grown in cell culture medium according to the instructions from ATCC. For experimental treatments, cells were seeded into 6-well plates and cultured for two days until they reached confluence. Total cellular RNA was extracted from cultured cells and reverse-transcribed as described by Richard et al. Mol. Nutr. Food Res. 49, 431-442, 2005. Expression levels of distinct genes were determined by quantitative real-time PCR as described in Richard et al. Mol. Nutr. Food Res. 49, 431-442, 2005.

Human collagen I = test system: Human collagen I
Procedure: as §1, §2

Row | Compound | Aggrecan gene expression level relative to cells treated without the compound (Aggrecan) [%] | Human MMP-13 gene expression level relative to cells treated without the compound (Human MMP-13) [%] | Human MMP-1 gene expression level relative to cells treated without the compound (Human MMP-1) [%] | Human collagen II gene expression level relative to cells treated without the compound (Human collagen II) [%] | Human MMP-3 gene expression level relative to cells treated without the compound (Human MMP-3) [%] | Human collagen I gene expression level relative to cells treated without the compound (Human collagen I) [%]
1 | COc1c(C(C)C)cc2c(c1O)[C@@]1(C(=O)O)CCCC(C)(C)[C@@H]1CC2 [Carnosic acid-12-methyl ether (XII), Carnosic acid 12-methylether] | 123 | 60 | 94 | 139 | 69 | –
2 | CC(C)c1cc2c(c(O)c1O)C1=C(CC2)C(C)(C)CCC1=O [Sageone (VII), Sageone] | 152 | 36 | 3 | – | 112 | 120

Reference: patent US20100056615A1, “USE OF TRICYCLIC DITERPENES AND THEIR DERIVATIVES FOR THE TREATMENT, CO-TREATMENT OR PREVENTION OF INFLAMMATORY DISORDERS AND/OR JOINT DISORDERS” (priority 2006, published 2010)
